Experimental data reported in EP4725957A1, “GROUP OF CYCLIC ALKALINE LIPOPEPTIDE COMPOUNDS, AND PREPARATION METHOD THEREFOR AND USE THEREOF” (Institute of Medicinal Biotechnology, Chinese Academy of …, priority 2023, dated 2024).
Converted amounts (≈) assume the structure as drawn. Like-named read-outs stand apart in the source and are kept apart here. Bridge positions count the residues as written; N and C are the ends. Square brackets hold non-standard residues; d marks the D form. Peptide text beside a SMILES is read from it. * marks the point of attachment. Heptanoyl(6-Me) = CC(C)CCCCC(=O)*; dOrn = NCCC[C@@H](N)C(=O)O; Nonanoyl = CCCCCCCCC(=O)*; X1 = CC[C@H](C)CCCCC(=O)*; Heptanoyl = CCCCCCC(=O)*; Octanoyl = CCCCCCCC(=O)*; Orn = NCCC[C@H](N)C(=O)O; Dab = NCC[C@H](N)C(=O)O; Dap = NC[C@H](N)C(=O)O

Legend:
Format in all cases: cell-based
[1] = Nephrotoxicity assay: in vitro cytotoxicity of HK-2 cells by CCK-8 assay; conditions: human, HK-2 cells (human renal), 72 h incubation with drug-containing medium
In short: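 HK-2 human renal cells in RPMI-1640 with 10% FBS were exposed to compounds at final 12.5–500 µg/mL for 72 h, then CCK-8 for 3 h and OD450 read. Viability was normalised to drug-free wells; IC50 came from logarithmic regression over three repeats, with polymyxin B as positive drug.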

[2] = test system: Klebsiella pneumoniae ATCC BAA-1705 (KPC)
In short: (§1)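 Minimal inhibitory concentrations are measured following CLSI microdilution guidance in MH broth. Test concentrations run from 64 down to 0.03 mg/L in doubling steps, with a final bacterial load of (2-4) × 10^5 CFU/mL and 16-20 h incubation at 35-37°C.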

[3] = test system: Klebsiella pneumoniae KPN+19-15
In short: as §1

[4] = test system: Escherichia coli ATCC BAA-2523
In short: as §1

[5] = test system: Escherichia coli ATCC BAA-2340 (KPC)
In short: as §1

[6] = test system: Acinetobacter baumannii NCTC 13304 (OXA-27)
In short: as §1

[7] = test system: Acinetobacter baumannii ABA19-1
In short: as §1

[8] = test system: Pseudomonas aeruginosa PAE19-3
In short: as §1

[9] = test system: Pseudomonas aeruginosa ATCC 27853
In short: as §1

Q: For `CCCCCCCC(=O)N[C@@H](CCN)C(=O)N[C@H](C(=O)N[C@@H](CN)C(=O)N[C@H]1CCNC(=O)[C@H]([C@@H](C)O)NC(=O)[C@H](CCN)NC(=O)[C@H](CCN)NC(=O)[C@H](CC(C)C)NC(=O)[C@@H](Cc2ccccc2)NC(=O)[C@H](CCN)NC1=O)[C@@H](C)O` [Compound 38, Octanoyl-Dab-Thr-Dap-ring(4-10)[Dab-Dab-D-Phe-Leu-Dab-Dab-Thr]] (Octanoyl-[Dab]T[Dap][Dab][Dab][dF]L[Dab][Dab]T; lactam 4-C), which IC50 at 72 h [1] is on record?
A: 219 ± 9.4 µg/mL (≈ 186 µM)

Q: What about the MIC ([2]; Klebsiella pneumoniae ATCC BAA-1705 (KPC)) of the same compound?
A: 0.03 µg/mL (≈ 0.0255 µM)

Q: And the MIC ([3]; Klebsiella pneumoniae KPN 19-15)?
A: 0.03 µg/mL (≈ 0.0255 µM)

Q: And the MIC ([4]; Escherichia coli ATCC BAA-2523)?
A: 0.03 µg/mL (≈ 0.0255 µM)

Q: What about the MIC ([5]; Escherichia coli ATCC BAA-2340 (KPC)) of the same compound?
A: 0.03 µg/mL (≈ 0.0255 µM)

Q: And the MIC ([6]; Acinetobacter baumannii NCTC 13304 (OXA-27))?
A: 0.03 µg/mL (≈ 0.0255 µM)

Q: What about the MIC ([7]; Acinetobacter baumannii ABA19-1) of the same compound?
A: 0.03 µg/mL (≈ 0.0255 µM)

Q: And the MIC ([8]; Pseudomonas aeruginosa PAE19-3)?
A: 0.25 µg/mL (≈ 0.213 µM)

Q: And the MIC ([9]; Pseudomonas aeruginosa ATCC27853)?
A: 0.03 µg/mL (≈ 0.0255 µM)

Q: What does the source list for `CC[C@H](C)CCCCC(=O)N[C@@H](CN)C(=O)N[C@H](C(=O)N[C@H](CO)C(=O)N[C@H]1CCNC(=O)[C@H]([C@@H](C)O)NC(=O)[C@H](CCN)NC(=O)[C@H](CCN)NC(=O)[C@H]([C@@H](C)O)NC(=O)[C@@H](Cc2ccccc2)NC(=O)[C@H](CCN)NC1=O)[C@@H](C)O` [Compound 51, (S)-6-methyloctanoyl-Dap-Thr-D-Ser-ring(4-10)[Dab-Dab-D-Phe-Thr-Dab-Dab-Thr]] (X1-[Dap]T[dS][Dab][Dab][dF]T[Dab][Dab]T; lactam 4-C)?
A: IC50 at 72 h [1]: > 500 µg/mL; MIC ([2]; ATCC BAA-1705): 0.25 µg/mL (≈ 0.215 µM); MIC ([3]; KPN+19-15): 0.5 µg/mL (≈ 0.429 µM); MIC ([4]; ATCC BAA-2523): ≤0.03 µg/mL; MIC ([5]; ATCC BAA-2340): ≤0.03 µg/mL; MIC ([6]; NCTC 13304): 0.25 µg/mL (≈ 0.215 µM); MIC ([7]; ABA19-1): 0.25 µg/mL (≈ 0.215 µM); MIC ([8]; PAE19-3): 4 µg/mL (≈ 3.44 µM); MIC ([9]; ATCC 27853): 64 µg/mL (≈ 55 µM)

Q: Which IC50 at 72 h [1] does the source give for `CC(C)CCCCC(=O)N[C@@H](CN)C(=O)N[C@H](C(=O)N[C@H](CO)C(=O)N[C@H]1CCNC(=O)[C@H]([C@@H](C)O)NC(=O)[C@H](CCN)NC(=O)[C@H](CCN)NC(=O)[C@H]([C@@H](C)O)NC(=O)[C@@H](Cc2ccccc2)NC(=O)[C@H](CCN)NC1=O)[C@@H](C)O` [Compound 52, 6-methylheptanoyl-Dap-Thr-D-Ser-ring(4-10)[Dab-Dab-D-Phe-Thr-Dab-Dab-Thr]] ({Heptanoyl(6-Me)}-[Dap]T[dS][Dab][Dab][dF]T[Dab][Dab]T; lactam 4-C) here?
A: > 500 µg/mL

Q: What about the MIC ([2]; ATCC BAA-1705) of the same compound?
A: 0.25 µg/mL (≈ 0.217 µM)

Q: What about the MIC ([3]; KPN+19-15) of the same compound?
A: 0.5 µg/mL (≈ 0.435 µM)

Q: And the MIC ([4]; ATCC BAA-2523)?
A: ≤0.03 µg/mL

Q: What about the MIC ([5]; ATCC BAA-2340) of the same compound?
A: ≤0.03 µg/mL

Q: What about the MIC ([6]; NCTC 13304) of the same compound?
A: 0.25 µg/mL (≈ 0.217 µM)

Q: What about the MIC ([7]; ABA19-1) of the same compound?
A: 0.25 µg/mL (≈ 0.217 µM)

Q: And the MIC ([8]; PAE19-3)?
A: 4 µg/mL (≈ 3.48 µM)

Q: What about the MIC ([9]; ATCC 27853) of the same compound?
A: 64 µg/mL (≈ 55.6 µM)

Q: Which IC50 at 72 h [1] does the source give for `CCCCCCCCC(=O)N[C@@H](CCN)C(=O)N[C@H](C(=O)N[C@@H](CN)C(=O)N[C@H]1CCNC(=O)[C@H]([C@@H](C)O)NC(=O)[C@H](CCN)NC(=O)[C@H](CCN)NC(=O)[C@H]([C@@H](C)O)NC(=O)[C@@H](Cc2ccccc2)NC(=O)[C@H](CCN)NC1=O)[C@@H](C)O` [Compound 10, Nonanoyl-Dab-Thr-Dap-ring(4-10)[Dab-Dab-D-Phe-Thr-Dab-Dab-Thr]] (Nonanoyl-[Dab]T[Dap][Dab][Dab][dF]T[Dab][Dab]T; lactam 4-C) here?
A: 350 ± 30.7 µg/mL (≈ 297 µM)

Q: What about the MIC ([2]; ATCC BAA-1705) of the same compound?
A: 0.06 µg/mL (≈ 0.051 µM)

Q: What about the MIC ([3]; KPN+19-15) of the same compound?
A: 0.06 µg/mL (≈ 0.051 µM)

Q: And the MIC ([4]; ATCC BAA-2523)?
A: 0.06 µg/mL (≈ 0.051 µM)

Q: And the MIC ([5]; ATCC BAA-2340)?
A: 0.06 µg/mL (≈ 0.051 µM)

Q: And the MIC ([6]; NCTC 13304)?
A: 0.06 µg/mL (≈ 0.051 µM)

Q: And the MIC ([7]; ABA19-1)?
A: 0.06 µg/mL (≈ 0.051 µM)

Q: What about the MIC ([8]; PAE19-3) of the same compound?
A: 0.5 µg/mL (≈ 0.425 µM)

Q: What about the MIC ([9]; ATCC 27853) of the same compound?
A: 0.25 µg/mL (≈ 0.212 µM)

Q: Which IC50 at 72 h [1] does the source give for `CCCCCCC(=O)N[C@@H](CCN)C(=O)N[C@H](C(=O)N[C@H](CO)C(=O)N[C@H]1CCNC(=O)[C@H]([C@@H](C)O)NC(=O)[C@H](CCN)NC(=O)[C@H](CCCN)NC(=O)[C@H]([C@@H](C)O)NC(=O)[C@@H](Cc2ccccc2)NC(=O)[C@H](CCN)NC1=O)[C@@H](C)O` [Compound 79, Heptanoyl-Dab-Thr-D-Ser-ring(4-10)[Dab-Dab-D-Phe-Thr-Orn-Dab-Thr]] (Heptanoyl-[Dab]T[dS][Dab][Dab][dF]T[Orn][Dab]T; lactam 4-C) here?
A: > 500 µg/mL

Q: What about the MIC ([2]; ATCC BAA-1705) of the same compound?
A: 0.25 µg/mL (≈ 0.215 µM)

Q: And the MIC ([3]; KPN+19-15)?
A: 0.5 µg/mL (≈ 0.429 µM)

Q: What about the MIC ([4]; ATCC BAA-2523) of the same compound?
A: 0.03 µg/mL (≈ 0.0258 µM)

Q: What about the MIC ([5]; ATCC BAA-2340) of the same compound?
A: 0.03 µg/mL (≈ 0.0258 µM)

Q: And the MIC ([6]; NCTC 13304)?
A: 0.03 µg/mL (≈ 0.0258 µM)

Q: What about the MIC ([7]; ABA19-1) of the same compound?
A: 0.06 µg/mL (≈ 0.0515 µM)

Q: And the MIC ([8]; PAE19-3)?
A: 64 µg/mL (≈ 55 µM)

Q: What about the MIC ([9]; ATCC 27853) of the same compound?
A: >64 µg/mL

Q: What does the source list for `CC(C)CCCCC(=O)N[C@@H](CCN)C(=O)N[C@H](C(=O)N[C@H](CCCN)C(=O)N[C@H]1CCNC(=O)[C@H]([C@@H](C)O)NC(=O)[C@H](CCN)NC(=O)[C@H](CCN)NC(=O)[C@H](CC(C)C)NC(=O)[C@@H](Cc2ccccc2)NC(=O)[C@H](CCN)NC1=O)[C@@H](C)O` [Compound 42, 6-methylheptanoyl-Dab-Thr-D-Orn-ring(4-10)[Dab-Dab-D-Phe-Leu-Dab-Dab-Thr]] ({Heptanoyl(6-Me)}-[Dab]T[dOrn][Dab][Dab][dF]L[Dab][Dab]T; lactam 4-C)?
A: IC50 at 72 h [1]: 316 ± 6.7 µg/mL (≈ 262 µM); MIC ([2]; ATCC BAA-1705): 0.06 µg/mL (≈ 0.0499 µM); MIC ([3]; KPN+19-15): 0.125 µg/mL (≈ 0.104 µM); MIC ([4]; ATCC BAA-2523): 0.03 µg/mL (≈ 0.0249 µM); MIC ([5]; ATCC BAA-2340): 0.03 µg/mL (≈ 0.0249 µM); MIC ([6]; NCTC 13304): 0.06 µg/mL (≈ 0.0499 µM); MIC ([7]; ABA19-1): 0.125 µg/mL (≈ 0.104 µM); MIC ([8]; PAE19-3): 1 µg/mL (≈ 0.831 µM); MIC ([9]; ATCC 27853): 0.25 µg/mL (≈ 0.208 µM)
